# BindingDB's records for doi:10.7270/Q2N301S8 (D3R/Abbott, 2020)
# Target: Beta-secretase 1 (Homo sapiens, UniProt P56817)
# Test: D3R2027
# From the text: D3R2027
# Beta-secretase 1, sequence (P56817 whole entry): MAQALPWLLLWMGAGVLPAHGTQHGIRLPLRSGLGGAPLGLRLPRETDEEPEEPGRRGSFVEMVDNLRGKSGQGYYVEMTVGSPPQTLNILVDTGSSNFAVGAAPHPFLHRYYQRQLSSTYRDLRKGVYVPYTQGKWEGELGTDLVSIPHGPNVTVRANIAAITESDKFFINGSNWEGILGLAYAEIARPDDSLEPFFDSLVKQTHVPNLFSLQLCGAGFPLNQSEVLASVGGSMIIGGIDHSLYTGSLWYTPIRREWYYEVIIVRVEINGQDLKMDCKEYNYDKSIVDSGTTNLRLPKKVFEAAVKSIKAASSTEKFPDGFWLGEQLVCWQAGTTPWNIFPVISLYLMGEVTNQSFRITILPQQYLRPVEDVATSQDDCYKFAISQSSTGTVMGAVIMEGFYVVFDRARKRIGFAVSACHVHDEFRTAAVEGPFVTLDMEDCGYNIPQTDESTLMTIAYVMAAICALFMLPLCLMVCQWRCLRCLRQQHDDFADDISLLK
row,IC50 [nM],Compound
1,3,Cc1cc2cc(n1)NCCCCc1cccc(c1)C[C@@H]([C@H](O)CNCc1cc(C(C)(C)C)ccn1)NC2=O [BACE_97]
2,1400,Cc1cc2cc(n1)OCc1ccccc1COc1cccc(c1)C[C@@H]([C@H](O)CNC1(c3cccc(C(C)C)c3)CC1)NC2=O [BACE_112]
3,6.5,COCc1cc2cc(c1)C(=O)N[C@H]([C@H](O)CNC(C)(C)c1cc(CC(C)(C)C)on1)Cc1cccc(c1)OCCCCN2 [BACE_117]
4,5900,C[C@@H]1CCCCCCNC(=O)C[C@@H](C)C(=O)N[C@H]([C@H](O)CNCc2cccc(C(C)(C)C)c2)C1 [BACE_37]
5,2,CC(C)c1cccc(CNC[C@@H](O)[C@@H]2C[C@H](C)CCCCCN([C@H](C)c3ccccc3)C(=O)c3cc(cc(-c4ncco4)c3)C(=O)N2)c1 [BACE_7]
6,590,CC(C)(NC[C@@H](O)[C@@H]1Cc2cccc(c2)CCCCNc2cncc(c2)C(=O)N1)c1cccc(Br)c1 [BACE_120]
7,180,COC(=O)c1cc2cc(c1)C(=O)N[C@H]([C@H](O)CNCc1cccc(C(C)C)c1)Cc1cccc(c1)CCCCO2 [BACE_134]
8,300,C[C@@H]1CCCCCCCOc2cccc(c2)C(=O)N[C@H]([C@H](O)CN[C@@H](C)c2cc(CC(C)(C)C)on2)C1 [BACE_79]
9,100,Cc1cc2cc(n1)NC/C=C\COc1cc(ccc1F)C[C@@H]([C@H](O)CNC1(c3cccc(C(C)(C)C)c3)CC1)NC2=O [BACE_102]
10,68,C[C@@H]1CS(=O)(=O)CCCCOc2cccc(c2)C[C@@H]([C@H](O)CNC2(c3cccc(Br)c3)CC2)NC1=O [BACE_95]
11,0.5,CC(C)c1ccnc(C2(NC[C@@H](O)[C@@H]3Cc4cccc(c4)CCCCNc4cc(cc(Cl)n4)C(=O)N3)CC2)c1 [BACE_98]
12,29,CC(C)c1cccc(CNC[C@@H](O)[C@@H]2Cc3cccc(c3)OCCCCS(=O)(=O)C[C@@H](C)C(=O)N2)c1 [BACE_94]
13,3,CCCCNC(=O)[C@H](C)C[C@H](O)[C@@H]1C[C@H](C)CCCCCCC[C@H](NC(=O)OC(C)(C)C)C(=O)N[C@@H](C)C(=O)N1 [BACE_149]
14,400,CCCc1cc(CNC[C@@H](O)[C@@H]2C[C@H](C)CCCCCCOCC(=O)N(C)[C@@H](C)C(=O)N2)n[nH]1 [BACE_5]
15,2,C[C@@H]1CCCCCCCCC(=O)N(C)[C@@H](C)C(=O)N[C@H]([C@H](O)CNC2(c3cc(C(C)(C)C)ccn3)CC2)C1 [BACE_23]
16,120,CCCCNC(=O)[C@H](C)C[C@H](O)[C@@H]1Cc2ccc(O)c(c2)Cc2ccccc2OCC(=O)N[C@@H](C)C(=O)N1 [BACE_157]
17,1.5,CC(C)(C)c1ccnc(C2(NC[C@@H](O)[C@@H]3Cc4cccc(c4)CCCCNc4cc(cc(-c5ncco5)c4)C(=O)N3)CC2)c1 [BACE_119]
18,16,Cc1cc2cc(n1)OCCCCc1cc(cc(Cl)c1O)C[C@@H]([C@H](O)CNC(C)(C)c1cc(CC(C)(C)C)on1)NC2=O [BACE_108]
19,1,COCc1cc2cc(c1)C(=O)N[C@H]([C@H](O)CN[C@H]1CC(C)(C)Oc3ccc(C(C)C)cc31)C[C@H](C)CCCCCCCN2 [BACE_63]
20,19,CC(C)c1cccc(CNC[C@@H](O)[C@@H]2C[C@H](C)CCCCC[C@H](C)CCC(=O)N(C)[C@@H](C)C(=O)N2)c1 [BACE_33]
21,6300,CCOc1cc(CNC[C@@H](O)[C@@H]2C[C@H](C)CCOCCCCNc3cccc(c3)C(=O)N2)cc(C(F)(F)F)c1 [BACE_73]
22,3.5,C[C@@H]1CCCCCCCCC(=O)N(C)[C@@H](C)C(=O)N[C@H]([C@H](O)CNCc2cc(CC(C)(C)C)on2)C1 [BACE_29]
